One test has as its system H2405 cells. Put plainly: H2405 Cell Proliferation Assay (1). To be noted: Homo sapiens, NCI-H2405. The test is classed as cell-based. On the procedure: H2405 Cell Proliferation Assay (1)
H2405 cells (catalog #CRL-5994) are obtained from the American Type Culture Collect (ATTC, Manassas, VA). Briefly, cells were grown in RPMI 1640 supplemented with 5% characterized fetal bovine serum (Invitrogen, Carlsbad, CA) and 1% Penicillin/Streptomycin/L-Glutamine at 37° C., 5% CO2, and 95% humidity. Cells are expanded until reaching 70-95% confluency at which point they are sub-cultured or harvested for assay use. A serial dilution of test compound is dispensed into a 96-well black clear bottom plate in triplicate. Three thousand cells are added per well in 200 μL complete growth medium in the 96-well plate. Plates are incubated for 67-72 h at 37° C., 5% CO2, and 95% humidity. At the end of the incubation, 40 μL of a 440 μM solution of resazurin (Sigma, St. Louis, MO) in PBS is added to each well of the plate and plates are incubated for an additional 5-6 h at 37° C., 5% CO2, and 95% humidity. Plates are read on a Synergy2 or equivalent reader (Biotek, Winooski VT) using an excitation of 540 nm and an emission of 600 nm. Data is analyzed using Prism software (GraphPad, San Diego, CA) to calculate IC50 values.

Test [1] deals with A-Raf kinase (SEQ. ID No: 1) (Homo sapiens (Human), UniProt P10398, Y301D/Y302D). In words: Biochemical Assay for A-Raf (1). To be noted: Table J, assay version (1); read-out: ARAF (1) IC50. The essentials: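 A-Raf Y301D/Y302D at 5.55 nM phosphorylates 30.1 nM MEK with 1 mM ATP in pH 7.5 Tris buffer, 1% DMSO. Activity was read continuously as NADH oxidation at 340 nm in a pyruvate kinase/lactate dehydrogenase coupled system for 6 h at 30 °C. Rates from 4–5 h were converted to percent inhibition, and IC50 came from a four-parameter fit.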

The target in test [2] is B-Raf kinase (SEQ. ID NO: 2) (Homo sapiens (Human), UniProt P15056). In words: Biochemical Assay for B-Raf (1). As to conditions: Table J, assay version (1); read-out: BRAF (1) IC50. The essentials: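 Continuous PK/LDH-coupled NADH oxidation assay, A340 read for 6 h at 30° C., with 0.13 nM B-Raf, 30.1 nM MEK substrate and 1 mM ATP in Tris pH 7.5, MgCl2, DTT, detergents, 1% DMSO. Rate taken from 4–5 h window; percent inhibition vs no-compound and known-inhibitor controls; four-parameter fit gives IC50.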

Test [3] concerns the target C-Raf kinase (SEQ. ID NO: 3) (Homo sapiens (Human), UniProt P04049, Y340D/Y341D). Put plainly: Biochemical Assay for C-Raf (1). To be noted: Table J, assay version (1); read-out: CRAF (1) IC50. In a few lines:
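Coupled pyruvate kinase/LDH assay tracking NADH oxidation at 340 nm, with 0.43 nM C-Raf, 30.1 nM MEK and 1 mM ATP in pH 7.5 Tris buffer (15 mM MgCl2, 1% DMSO final). Read continuously for 6 h at 30 °C, rate taken from the 4–5 h window. IC50 from four-parameter fit of percent inhibition.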

Chain of B-Raf kinase (SEQ. ID NO: 2) (P15056 416-766): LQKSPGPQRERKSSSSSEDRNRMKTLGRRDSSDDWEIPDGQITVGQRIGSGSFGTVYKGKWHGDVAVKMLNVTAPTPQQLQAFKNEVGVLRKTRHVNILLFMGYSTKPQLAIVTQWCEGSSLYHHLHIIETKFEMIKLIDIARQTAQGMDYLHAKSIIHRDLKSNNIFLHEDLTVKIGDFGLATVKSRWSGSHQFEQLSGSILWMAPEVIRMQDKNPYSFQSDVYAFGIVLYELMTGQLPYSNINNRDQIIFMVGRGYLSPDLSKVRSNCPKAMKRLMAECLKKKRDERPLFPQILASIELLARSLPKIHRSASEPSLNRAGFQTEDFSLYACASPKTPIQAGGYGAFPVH
Chain of C-Raf kinase (SEQ. ID NO: 3) (P04049 307-648 Y340D/Y341D): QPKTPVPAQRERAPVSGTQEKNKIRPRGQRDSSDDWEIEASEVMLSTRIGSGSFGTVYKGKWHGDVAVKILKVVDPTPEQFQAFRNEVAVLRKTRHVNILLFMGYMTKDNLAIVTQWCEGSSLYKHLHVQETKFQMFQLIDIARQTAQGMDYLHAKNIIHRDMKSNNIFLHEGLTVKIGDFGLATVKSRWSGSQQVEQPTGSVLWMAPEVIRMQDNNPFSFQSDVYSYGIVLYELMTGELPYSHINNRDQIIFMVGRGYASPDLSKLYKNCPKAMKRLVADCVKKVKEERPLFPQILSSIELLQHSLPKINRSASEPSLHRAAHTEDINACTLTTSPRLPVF
Chain of A-Raf kinase (SEQ. ID No: 1) (P10398 other isoform, or with tags, fused parts or gaps Y301D (already in the parent)/Y302D (already in the parent)): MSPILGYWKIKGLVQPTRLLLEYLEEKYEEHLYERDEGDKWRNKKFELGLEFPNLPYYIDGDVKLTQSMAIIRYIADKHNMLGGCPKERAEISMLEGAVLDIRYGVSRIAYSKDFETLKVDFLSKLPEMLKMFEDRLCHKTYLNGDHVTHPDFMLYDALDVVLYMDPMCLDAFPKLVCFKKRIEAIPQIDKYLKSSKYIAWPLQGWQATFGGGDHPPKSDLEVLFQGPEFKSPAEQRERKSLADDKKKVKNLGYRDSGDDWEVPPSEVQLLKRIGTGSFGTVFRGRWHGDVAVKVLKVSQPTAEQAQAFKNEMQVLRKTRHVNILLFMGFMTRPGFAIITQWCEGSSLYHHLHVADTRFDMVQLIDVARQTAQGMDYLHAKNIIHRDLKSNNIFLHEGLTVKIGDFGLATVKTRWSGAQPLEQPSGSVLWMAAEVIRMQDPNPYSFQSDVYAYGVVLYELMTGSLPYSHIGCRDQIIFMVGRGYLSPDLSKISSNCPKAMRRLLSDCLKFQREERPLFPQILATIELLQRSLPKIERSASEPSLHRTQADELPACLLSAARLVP

Regarding `CC(=O)Nc1cc(-c2cc(-c3cc(NC(=O)c4ccnc(C(F)(F)F)c4)ccc3C)ccn2)ccn1` [Example 6], the IC50 was at most 0.1 µM with H2405 cells, 0.1 to 0.5 µM in test [1], at most 0.1 µM in test [2] and at most 0.1 µM in test [3].
`CC(=O)Nc1cc(-c2ccnc(-c3cc(NC(=O)c4ccnc(C(C)(C)C#N)c4)ccc3C)n2)ccn1` [Example 103]: the IC50 with H2405 cells was at most 0.1 µM; in test [1], 0.5 to 1 µM; in test [2], at most 0.1 µM; in test [3], at most 0.1 µM.
Take `Cc1cc(F)c(NC(=O)c2ccnc(C(C)(C)C#N)c2)cc1-c1ccnc(-c2ccnc(NC=O)c2)c1` [Example 104]: the IC50 in the test on H2405 cells is at most 0.1 µM; in test [1], 1 to 10 µM; in test [2], at most 0.1 µM; in test [3] it was at most 0.1 µM.
Take `Cc1ccc(NC(=O)c2cccc(C(C)(C)C#N)c2)cc1-c1cc(OCCO)nc(-c2ccnc3c2CC(=O)N3)c1` [Example 108]: the half-inhibitory concentration (IC50) with H2405 cells is at most 0.1 µM; in test [1] it was 1 to 10 µM; in test [2] it was at most 0.1 µM; in test [3], at most 0.1 µM.
On to `Cc1ncc(NC(=O)c2ccnc(C(C)(C)C#N)c2)cc1-c1cccc(-c2ccnc3[nH]cnc23)c1` [Example 111], for which the IC50 was 1 to 10 µM with H2405 cells, 1 to 10 µM in test [1], 0.5 to 1 µM in test [2] and 0.1 to 0.5 µM in test [3].
For the molecule `Cc1ccc(NC(=O)c2ccnc(C(C)(C)C#N)c2)cc1-c1cncc(-c2ccnc(NC(=O)C3CC3)c2)n1` [Example 112], the IC50 is at most 0.1 µM in the test with H2405 cells, 0.5 to 1 µM in test [1], at most 0.1 µM in test [2] and at most 0.1 µM in test [3].
On to `CC(=O)Nc1cc(-c2cncc(-c3cc(NC(=O)c4ccnc(C(C)(C)C#N)c4)ccc3C)n2)ccn1` [Example 140], for which the IC50 in test [1] is 0.5 to 1 µM; in test [2] it was at most 0.1 µM; in test [3], at most 0.1 µM.
In the case of `Cc1ccc(NC(=O)c2ccnc(C(C)(C)C#N)c2)cc1-c1cncc(-c2ccnc(N)c2)n1` [Example 141], the IC50 was 1 to 10 µM in test [1], 0.1 to 0.5 µM in test [2] and at most 0.1 µM in test [3].
Turning to `COCC(=O)Nc1cc(-c2cncc(-c3cc(NC(=O)c4ccnc(C(C)(C)C#N)c4)ccc3C)n2)ccn1` [Example 142], the IC50 was 1 to 10 µM in test [1], at most 0.1 µM in test [2] and at most 0.1 µM in test [3].
Regarding `COCCNc1cc(-c2cncc(-c3cc(NC(=O)c4ccnc(C(C)(C)C#N)c4)ccc3C)n2)ccn1` [Example 143], the IC50 is 1 to 10 µM in test [1], 0.1 to 0.5 µM in test [2] and at most 0.1 µM in test [3].
For the molecule `CC(=O)Nc1cc(-c2cncc(-c3cc(NC(=O)c4ccnc(C5CC5)c4)ccc3C)n2)ccn1` [Example 145], the IC50 is 0.5 to 1 µM in test [1], at most 0.1 µM in test [2] and at most 0.1 µM in test [3].
Regarding `CC(=O)Nc1cc(-c2cncc(-c3cc(NC(=O)c4ccnc(C5(C#N)CC5)c4)ccc3C)n2)ccn1` [Example 146], the IC50 in test [1] was 0.5 to 1 µM; in test [2], at most 0.1 µM; in test [3], at most 0.1 µM.
`Cc1ccc(NC(=O)c2ccnc(C(C)(C)C#N)c2)cc1-c1cncc(-c2ccnc(C(=O)NC3CC3)c2)n1` [Example 148]: the figures for the IC50 in test [1], in test [2] and in test [3] were 1 to 10 µM, 0.1 to 0.5 µM and 0.1 to 0.5 µM, respectively.
As to `CC(=O)Nc1cc(-c2nccc(-c3cc(NC(=O)c4cccc(C(C)(C)C#N)c4)ccc3C)n2)ccn1` [Example 150], the IC50 was 0.1 to 0.5 µM in test [1], at most 0.1 µM in test [2] and at most 0.1 µM in test [3].
Regarding `CC(=O)Nc1cc(-c2nccc(-c3cc(NC(=O)c4ccnc(C5(C#N)CC5)c4)ccc3C)n2)ccn1` [Example 151], the IC50 in test [1] was 0.1 to 0.5 µM; in test [2], at most 0.1 µM; in test [3], at most 0.1 µM.
In the case of `CC(=O)Nc1cc(-c2nccc(-c3cc(NC(=O)c4ccnc(C5CC5)c4)ccc3C)n2)ccn1` [Example 152], the IC50 in test [1] is 0.5 to 1 µM; in test [2], at most 0.1 µM; in test [3], at most 0.1 µM.
For the molecule `CC(=O)Nc1cc(-c2nccc(-c3cc(NC(=O)c4cc(C(F)(F)F)ccn4)ccc3C)n2)ccn1` [Example 153], the IC50 in test [1] was 0.1 to 0.5 µM; in test [2], at most 0.1 µM; in test [3], at most 0.1 µM.
On to `Cc1ccc(NC(=O)c2ccnc(C(C)(C)C#N)c2)cc1-c1cncc(-c2ccnc(NC(=O)CC#N)c2)n1` [Example 154], for which the IC50 in test [1] is 0.1 to 0.5 µM; in test [2], at most 0.1 µM; in test [3], at most 0.1 µM.
Turning to `COCCNc1cc(-c2cccc(-c3cc(NC(=O)c4ccnc(C(F)(F)F)c4)ccc3C)c2)ncn1` [Example 156], the IC50 was 1 to 10 µM in test [1], 0.1 to 0.5 µM in test [2] and at most 0.1 µM in test [3].
As to `CC(=O)Nc1cc(-c2nccc(-c3cc(NC(=O)c4ccnc(C(F)(F)F)c4)cnc3C)n2)ccn1` [Example 157], the results for the IC50 in test [1], in test [2] and in test [3] were 1 to 10 µM, at most 0.1 µM and at most 0.1 µM, respectively.
For the molecule `CNC(=O)c1cc(-c2cc(-c3cc(NC(=O)c4ccnc(C(C)(C)C#N)c4)cnc3C)ccn2)ccn1` [Example 158], the IC50 in test [1] was 1 to 10 µM; in test [2] it was 0.1 to 0.5 µM; in test [3] it was 0.1 to 0.5 µM.
For the molecule `CNc1cc(-c2cccc(-c3cc(NC(=O)c4ccnc(C(C)(C)C#N)c4)ccc3C)c2)ncn1` [Example 160], the IC50 in test [1] was 1 to 10 µM; in test [2], at most 0.1 µM; in test [3], at most 0.1 µM.
In the case of `Cc1ccc(NC(=O)c2ccnc(C(C)(C)C#N)c2)cc1-c1cncc(-c2ccnc(NC=O)c2)n1` [Example 161], the IC50 in test [1] is 0.5 to 1 µM; in test [2], at most 0.1 µM; in test [3] it was at most 0.1 µM.
On to `CC(=O)Nc1cc(-c2nccc(-c3cc(NC(=O)c4cnnc(C5CC5)c4)ccc3C)n2)ccn1` [Example 168], for which the IC50 is 1 to 10 µM in test [1], at most 0.1 µM in test [2] and at most 0.1 µM in test [3].
For `Cc1ccc(NC(=O)c2ccnc(C(C)(C)C#N)c2)cc1-c1nccc(-c2ccnc(NC(=O)C3CC3)c2)n1` [Example 169], the IC50 is 0.1 to 0.5 µM in test [1], at most 0.1 µM in test [2] and at most 0.1 µM in test [3].
On to `Cc1ncc(NC(=O)c2ccnc(C(C)(C)C#N)c2)cc1-c1cccc(-c2ccnc(NC(=O)C3CC3)c2)n1` [Example 172], for which the concentration for half-maximal inhibition (IC50) in test [1] was 1 to 10 µM; in test [2] it was at most 0.1 µM; in test [3], at most 0.1 µM.
Take `CNc1cc(-c2cncc(-c3cc(NC(=O)c4ccnc(C(C)(C)C#N)c4)ccc3C)n2)ccn1` [Example 173]: the results for the IC50 in test [1], in test [2] and in test [3] were 1 to 10 µM, 0.1 to 0.5 µM and at most 0.1 µM, respectively.
For the molecule `Cc1ccc(NC(=O)c2cccc(C(C)(C)C#N)c2)cc1-c1cccc(-c2cc(NC(=O)C3CC3)ncn2)c1` [Example 174], the IC50 in test [1] was 1 to 10 µM; in test [2], at most 0.1 µM; in test [3] it was at most 0.1 µM.
Turning to `CNC(=O)c1cc(-c2nccc(-c3cc(NC(=O)c4ccnc(C5(C#N)CC5)c4)ccc3C)n2)ccn1` [Example 175], the IC50 in test [1] is 1 to 10 µM; in test [2], at most 0.1 µM; in test [3], at most 0.1 µM.
Regarding `CNC(=O)c1cc(-c2ccnc(-c3cc(NC(=O)c4ccnc(C(C)(C)C#N)c4)ccc3C)n2)ccn1` [Example 177], the IC50 in test [1] was 1 to 10 µM; in test [2], 0.1 to 0.5 µM; in test [3], at most 0.1 µM.
Consider `Cc1cc(F)c(NC(=O)c2ccnc(C(C)(C)C#N)c2)cc1-c1ccnc(-c2ccnc(NC(=O)C3CC3)c2)n1` [Example 179], for which the results for the IC50 in test [1], in test [2] and in test [3] were 0.5 to 1 µM, at most 0.1 µM and at most 0.1 µM, respectively.
For `CCC(=O)Nc1cc(-c2cccc(-c3cc(NC(=O)c4ccnc(C(C)(C)C#N)c4)cnc3C)n2)ccn1` [Example 182], the IC50 is 1 to 10 µM in test [1], 0.1 to 0.5 µM in test [2] and at most 0.1 µM in test [3].
Take `Cc1ccc(NC(=O)c2ccnc(C3CC3)c2)cc1-c1cncc(-c2ccnc(NC(=O)C3CC3)c2)n1` [Example 184]: the IC50 in test [1] is 0.1 to 0.5 µM; in test [2], at most 0.1 µM; in test [3] it was at most 0.1 µM.

One may read the IC50 as the midpoint of a concentration-inhibition curve.

The values are drawn from US12319655B2, “RAF kinase inhibitors and methods of use thereof” (Deciphera Pharmaceuticals, LLC, priority 2021, dated 2025).
